According to patent US10233184B2, “7-substituted sulfonimidoylpurinone compounds and derivatives for the treatment and prophylaxis of virus infection” (Hoffmann-La Roche Inc., priority 2016, dated 2019):
Values after ≈ are worked out from the molar mass of the structure shown. Values joined by “and” are separate entries in the source; they are usually repeats but may differ in a detail not shown here. Identical values can stand only once. Like-named read-outs stand apart in the source and are kept apart here.

Experiments:
human TLR7 = molecular target: T1, human TLR7 (Homo sapiens, UniProt Q9NYK1); assay: HEK293-Blue-hTLR-7 cells assay (SEAP reporter); assay type: cell-based; conditions: for EC50: HEK293-Blue-hTLR-7 cells, SEAP reporter, 20 hrs; for Ratio (EC50(prodrug)/EC50(active form)): EC50 of prodrug over EC50 of corresponding active form
T1 sequence (Q9NYK1 27-1049): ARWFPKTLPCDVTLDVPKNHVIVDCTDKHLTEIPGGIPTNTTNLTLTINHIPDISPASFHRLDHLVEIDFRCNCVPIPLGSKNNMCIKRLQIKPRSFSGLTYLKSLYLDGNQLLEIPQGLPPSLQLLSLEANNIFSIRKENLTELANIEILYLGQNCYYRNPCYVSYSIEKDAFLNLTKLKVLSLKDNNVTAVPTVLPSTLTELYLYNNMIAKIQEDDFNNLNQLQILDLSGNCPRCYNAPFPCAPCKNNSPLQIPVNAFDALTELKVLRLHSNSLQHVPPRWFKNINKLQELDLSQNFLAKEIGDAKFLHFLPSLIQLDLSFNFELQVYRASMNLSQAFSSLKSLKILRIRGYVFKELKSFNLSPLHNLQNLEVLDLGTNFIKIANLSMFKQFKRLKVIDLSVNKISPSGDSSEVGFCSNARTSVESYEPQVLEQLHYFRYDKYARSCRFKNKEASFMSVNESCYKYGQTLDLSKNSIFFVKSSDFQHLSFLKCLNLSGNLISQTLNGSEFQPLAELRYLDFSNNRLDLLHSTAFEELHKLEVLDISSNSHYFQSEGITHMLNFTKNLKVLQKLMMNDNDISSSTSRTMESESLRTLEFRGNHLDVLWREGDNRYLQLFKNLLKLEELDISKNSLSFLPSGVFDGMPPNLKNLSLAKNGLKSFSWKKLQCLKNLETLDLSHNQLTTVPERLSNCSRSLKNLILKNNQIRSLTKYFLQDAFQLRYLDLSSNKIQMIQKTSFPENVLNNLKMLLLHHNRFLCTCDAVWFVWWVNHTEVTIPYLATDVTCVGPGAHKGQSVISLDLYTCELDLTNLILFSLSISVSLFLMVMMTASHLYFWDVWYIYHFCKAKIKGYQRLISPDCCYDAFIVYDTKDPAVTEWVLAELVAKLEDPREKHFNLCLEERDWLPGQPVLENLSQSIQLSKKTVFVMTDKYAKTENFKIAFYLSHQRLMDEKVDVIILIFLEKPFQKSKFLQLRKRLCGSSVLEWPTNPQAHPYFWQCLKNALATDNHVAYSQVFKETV
Summary of the method: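 HEK293-Blue-hTLR7 cells with NF-κB/AP-1-driven SEAP reporter exposed to serially diluted compound (1% DMSO) for 20 hrs at 37° C. Supernatant SEAP measured with QUANTI-Blue after 2 hrs at 37° C, absorbance 620~655 nm; agonism expressed as EC50.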

LYSA solubility study = assay type: physicochemical; conditions: for solubility thermodynamic: phosphate buffer, pH 6.5, aqueous buffer, thermodynamic from solid; for LYSA of Active Forms: aqueous solubility, 0.05M phosphate buffer pH 6.5
Description: LYSA study is used to determine the aqueous solubility of tested compounds. Samples were prepared in duplicate from 10 mM DMSO stock solution. After evaporation of DMSO with a centrifugal vacuum evaporator, the compounds were dissolved in 0.05M phosphate buffer (pH 6.5), stirred for one hour and shaken for two hours. After one night, the solutions were filtered using a microtiter filter plate. Then the filtrate and its 1/10 dilution were analyzed by HPLC-UV. […] The results were in μg/mL. In case the percentage of sample measured in solution after evaporation divided by the calculated maximum of sample amount was bigger than 80%, the solubility was reported as bigger than this value.

[1] = Single dose PK study in male Wister-Han rats; assay type: in vivo; conditions: 5 mg/kg oral dosing of active form; for concentration at 7 h: 7 hrs (footnote), read-out: Mean plasma concentration (nM), 7 hrs (row 8*)
Description: The single dose PK in Male Wister-Han Rats was performed to assess pharmacokinetic properties of tested compounds. Two groups of animals were dosed via Gavage (POE) of the respective compound. […] Blood samples were placed into tubes containing EDTA-K2 anticoagulant and centrifuged at 5000 rpm for 6 min at 4° C. to separate plasma from the samples. After centrifugation, the resulting plasma was transferred to clean tubes for bioanalysis of both prodrug and active form on LC/MS/MS. In the groups that prodrug were dosed, the concentration of prodrugs in the plasma samples was under the detection limit. The “tested compound” in Table 8 was used as the internal standard for testing the metabolite (active form) of “dose compound” in vivo. The pharmacokinetic parameters were calculated using non-compartmental module of WinNonlin® Professional 6.2. The peak concentration (Cmax) was recorded directly from experimental observations. The area under the plasma concentration-time curve (AUC0-t) was calculated using the linear trapezoidal rule up to the last detectable concentration. Cmax and AUC0-last are two critical PK parameters related to the in vivo efficacy of the tested compound. Compounds with higher Cmax and AUC0-last will lead to the better in vivo efficacy.

[2] = active form, read-out: HEK293-hTLR-7 EC50 (Active form)
[3] = 0.05M phosphate buffer pH 6.5, read-out: LYSA of Active Forms
[4] = male, Wister-Han, rat, plasma, po, 5 mg/kg
[5] = prodrug, read-out: HEK293-hTLR-7 EC50 (Prodrug)
[6] = 0.05M phosphate buffer pH 6.5, read-out: LYSA of Prodrugs

EC50 (human TLR7; [2]) | solubility thermodynamic (LYSA solubility study; [3]) | AUC(0-t) [1, 4] | Cmax [1, 4] | concentration at 0.25 h [1, 4] | concentration at 0.5 h [1, 4] | concentration at 1 h [1, 4] | concentration at 2 h [1, 4] | concentration at 4 h [1, 4] | concentration at 7 h [1, 4] | Ratio (EC50(prodrug)/EC50(active form)) (human TLR7) | EC50 (human TLR7; [5]) | solubility thermodynamic (LYSA solubility study; [6]) | SMILES | other results
110 nM | 13 µg/mL (≈ 37.5 µM) | 0.077 µM·h | 15.2 nM | 12.6 nM | 15.2 nM | 13 nM | 12 nM | 8.2 nM | 6.31 nM |  |  |  | CC[S@@](=N)(=O)c1nc(N)c2[nH]c(=O)n(Cc3ccc(C)cc3)c2n1 (single isomer, unassigned) [Compound 43e-A] | 
260 nM and 390 nM |  |  |  |  |  |  |  |  |  |  |  |  | CCS(=N)(=O)c1nc(N)c2[nH]c(=O)n(Cc3ccc(F)cc3)c2n1 (single isomer, unassigned) [Compound 45e-B] | LYSA of Active Forms (LYSA solubility study): 115 µg/mL; AUC0-last [1]: 0.568 µM·h; Cmax [1]: 53.9 nM; concentration at 0.25 h ([1]; read-out: Mean plasma concentration (nM), 0.25 h): 42.8 nM; concentration at 0.5 h ([1]; read-out: Mean plasma concentration (nM), 0.5 h): 52.2 nM; concentration at 1 h ([1]; read-out: Mean plasma concentration (nM), 1 h): 37.6 nM; concentration at 2 h ([1]; read-out: Mean plasma concentration (nM), 2 h): 24.2 nM; concentration at 4 h ([1]; read-out: Mean plasma concentration (nM), 4 h): 53.9 nM; concentration at 8 h ([1]; read-out: Mean plasma concentration (nM), 8 h): 29 nM; concentration at 24 h ([1]; read-out: Mean plasma concentration (nM), 24 h): 5.7 nM
390 nM and 260 nM |  | 0.767 µM·h | 80 nM | 64.6 nM | 80 nM | 58.1 nM | 42.5 nM | 77.8 nM |  |  |  |  | CCS(=N)(=O)c1nc(N)c2[nH]c(=O)n(Cc3ccc(F)cc3)c2n1 (single isomer, unassigned) [Compound 45e-A] | LYSA of Active Forms (LYSA solubility study): 90 µg/mL; concentration at 8 h [1, 4]: 34.6 nM; concentration at 24 h [1, 4]: 8.6 nM
85 nM | 5 µg/mL (≈ 13.6 µM) | 0.0558 µM·h | 5.46 nM | 3.41 nM | 0.75 nM | 2.04 nM | 5.46 nM | 2.52 nM | 1.21 nM |  |  |  | CC[S@@](=N)(=O)c1nc(N)c2[nH]c(=O)n(Cc3ccc(Cl)cc3)c2n1 (single isomer, unassigned) [Compound 41c-B] | 
 |  |  |  |  |  |  |  |  |  | 675.4 | 43900 nM | 120 µg/mL (≈ 252 µM) | CCCS(=N)(=O)c1nc(N)c2c(n1)n(Cc1ccccc1)c(=O)n2C(=O)N(C)CCCOC (stereo not drawn) [Example 12, 6-Amino-9-benzyl-N-(3-methoxypropyl)-N-methyl-8-oxo-2-(propylsulfonimidoyl)purine-7-carboxamide] | 
 |  |  |  |  |  |  |  |  |  |  | 31700 nM | > 380 µg/mL | CCCS(=N)(=O)c1nc(N)c2c(n1)n(Cc1ccccc1)c(=O)n2C(=O)N(C)CCN(C)C(=O)OC(C)(C)C (stereo not drawn) [Example 27, tert-Butyl N-[2-[[6-amino-9-benzyl-8-oxo-2-(propylsulfonimidoyl)purine-7-carbonyl]-methyl-amino]ethyl]-N-methyl-carbamate] | 
71 nM | 1 µg/mL (≈ 2.73 µM) | 0.242 µM·h | 32.3 nM | 16.8 nM | 27.5 nM | 32.3 nM | 27.3 nM | 27.4 nM | 18 nM |  |  |  | CC[S@](=N)(=O)c1nc(N)c2[nH]c(=O)n(Cc3ccc(Cl)cc3)c2n1 (single isomer, unassigned) [Compound 41c-A] | concentration at 24 h [1, 4]: 5.6 nM
 |  |  |  |  |  |  |  |  |  |  | 18300 nM | 305 µg/mL (≈ 614 µM) | CCN(C)C(=O)n1c(=O)n(Cc2ccc(Br)cc2)c2nc(S(=N)(=O)CC)nc(N)c21 (single isomer, unassigned) [Example 48-A] | 
 |  |  |  |  |  |  |  |  |  | 1053.8 | 68500 nM | 120 µg/mL (≈ 269 µM) | CCCS(=N)(=O)c1nc(N)c2c(n1)n(Cc1ccccc1)c(=O)n2C(=O)N(C)C(C)C (stereo not drawn) [Example 10, 6-Amino-9-benzyl-N-isopropyl-N-methyl-8-oxo-2-(propylsulfonimidoyl)purine-7-carboxamide] | 
 |  |  |  |  |  |  |  |  |  | 106.2 | 6900 nM | 695 µg/mL (≈ 1300 µM) | CCCS(=N)(=O)c1nc(N)c2c(n1)n(Cc1ccccc1)c(=O)n2C(=O)N(C)CCN(C)C(=O)OCC (stereo not drawn) [Example 28, Ethyl N-[2-[[6-amino-9-benzyl-8-oxo-2-(propylsulfonimidoyl)purine-7-carbonyl]-methyl-amino]ethyl]-N-methyl-carbamate] | 
